This is an account of results in US12576097B2, “Anti-tumor effective component of Hedyotis diffusa, preparation method therefor and use thereof” (Guangdong New Ear Life Technology Co., Ltd., priority 2020, dated 2026).

In the experiment the test system is human liver cancer Hep-G2 cells. Briefly: Inhibition rate on human liver cancer Hep-G2 cells (CCK-8). The format is cell-based. The settings on record: 3 mg/mL drug solutions, 24 h. The procedure: A cryopreservation tube containing liver cancer Hep-G2 cells was taken out from a liquid nitrogen tank, quickly placed in a water bath at 38-39° C., and continuously shaken to be fully thawed within 1 min. The cryopreservation tube was centrifuged at 800 r/min for 9 min, and sprayed with 75% alcohol on the outside thereof, and then put into a ultra-clean table. The resulting supernatant was sucked and discarded. 1 ml of DMEM complete medium was added, and a mixture of the cells and the DMEM complete medium was blown evenly, and then the cells were transferred to a 25 ml culture dish. 6-8 ml of DMEM complete medium was added, and a mixture of the cells and the DMEM complete medium was gently blown evenly, and put into a constant temperature incubator at 37° C. with 5% CO2.
The old medium in the item 2.1 was sucked out. 2 ml of PBS buffer solution was added, and the cells were washed by gently shaking the culture flask. The PBS buffer solution was sucked out to remove the loose, dead and senescent cells and their metabolic wastes, and the cells were washed for 2-3 times. 2 ml of trypsin was added, and the culture dish was gently shaken for 30 s. After the trypsin was sucked out, the culture dish was put into the incubator for full digestion for 3 min, and 2 ml of fresh DMEM complete culture was added. The cells were gently blown and dispersed into individual cells under a microscope, and then 6-8 ml of fresh DMEM complete medium was added and the cells were incubated in a constant temperature incubator.
2 mL trypsin was added into the cells cultured in the item 2.2 in the logarithmic growth phase and the cells were digested for 30 s. After the trypsin was sucked out, the culture dish was placed into the incubator for full digestion for 3 min, and 2 mL of fresh medium was added. The cells were gently blown to disperse the cells into individual cells under the microscope. 10 μL of cell suspension and 10 μL of 0.4% Trypan blue staining solution were mixed well to fully stain the cells. 10 μL of the stained cell suspension was added to a cell counting plate, and the number of cells was counted by a fully automatic cell counter. The cell suspension was diluted to 2×10^5 cells/mL with a DMEM complete medium. 100 μL of cell suspension was sucked with a multichannel pipette and seeded into a 96-well plate and incubated in a constant temperature incubator at 37° C. with 5% CO2 for 24 h.
30 mL of DMEM complete medium was accurately measured, 30 μL of DMSO was added, and uniform mixing was conducted to prepare 0.1% DMSO medium. […] The kaempferol solution and the methyl ester solution having the above concentrations were uniformly mixed to prepare drug solutions having the desired ratio based on the mass ratio of kaempferol to methyl ester being 1:1, 1:2, 1:3, 1:4, 1:5, 5:1, 4:1, 3:1 and 2:1, 400 μL of each drug solution. 1 mg/mL of 5-fluorouracil solution was diluted to a concentration of 800, 600, 400, 200, 100, 50, 25 μg/mL, respectively, 400 μL of each drug solution.
The old medium in the 96-well plate in the item 2.3 was sucked out, and 100 μL of PBS buffer solution was added to each well to remove the loose, dead and senescent cells and their metabolic wastes. After that, the PBS buffer solution was sucked out. 100 μL of the prepared drug solution was added to each well, 3 wells in parallel. A negative control was set up, in which an equal volume of DMEM complete medium containing 0.1 vol % DMSO was added to each well, 3 wells in parallel. A blank control was a DMEM complete medium containing 0.1 vol % DMSO free of cells, 3 wells in parallel. The cells were incubated for 24 h in a constant temperature incubator at 37° C. with 5% CO2.
The DMEM complete medium containing 0.1 vol % DMSO in the drug solutions and negative control in the 96-well plate in the item 2.5 were sucked out. […]

Regarding `COC(=O)C1=COC(O[C@@H]2O[C@H](CO)[C@@H](O)[C@H](O)[C@H]2O)C2C(CO)=CC(OC(=O)/C=C/c3ccc(O)cc3)C12` (stereo partly drawn) [Methyl ester, E-6-O-(p-coumaroyl)scandoside methyl ester], the inhibition rate was found to be 7.558% (1st measurement), 5.565% (2nd measurement) and 7.273% (3rd measurement).
